Measured values taken from PubChem BioAssay AID1963966 (Molecular Pharmacology Branch, DTP, NCI, 2024).

Test system: 935938-334-R-J1-PDC spheroids with HUVEC/MSC, viability
Experiment: Anticancer human tumor 935938-334-R-J1-PDC patient-derived small intestine adenocarcinoma cell line growth inhibition [PI3K]
Conditions: for IC50: curve of first compound; for viability, T/C: stronger effect = lower value; active = viability on the fitted dose curve at most 10% of control; inactive = the rest
Summary of the method: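 High-throughput combination screen: PI3K inhibitors crossed with targeted small molecules on complex spheroids of tumor cells, HUVEC and MSCs at 37 degrees C, 5% CO2. Top concentration was at or near clinical Cmax (otherwise 10 microM), with half-log decrements.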

[1] = second compound 0.00316 µM, first compound 0.0316 µM
[2] = second compound 0.00316 µM, first compound 0.1 µM
[3] = second compound 0.00316 µM, first compound 0.316 µM
[4] = second compound 0.00316 µM, first compound 1 µM
[5] = second compound 0.00316 µM, first compound 3.16 µM
[6] = second compound 0.00316 µM, first compound 10 µM
[7] = second compound 0.01 µM, first compound 0.0316 µM
[8] = second compound 0.01 µM, first compound 0.1 µM
[9] = second compound 0.01 µM, first compound 0.316 µM
[10] = second compound 0.01 µM, first compound 1 µM
[11] = second compound 0.01 µM, first compound 3.16 µM
[12] = second compound 0.01 µM, first compound 10 µM
[13] = second compound 0.0316 µM, first compound 0.0316 µM
[14] = second compound 0.0316 µM, first compound 0.1 µM
[15] = second compound 0.0316 µM, first compound 0.316 µM
[16] = second compound 0.0316 µM, first compound 1 µM
[17] = second compound 0.0316 µM, first compound 3.16 µM
[18] = second compound 0.0316 µM, first compound 10 µM
[19] = second compound 0.1 µM, first compound 0.0316 µM
[20] = second compound 0.1 µM, first compound 0.1 µM
[21] = second compound 0.1 µM, first compound 0.316 µM
[22] = second compound 0.1 µM, first compound 1 µM
[23] = second compound 0.1 µM, first compound 3.16 µM
[24] = second compound 0.1 µM, first compound 10 µM
[25] = second compound 0.316 µM, first compound 0.0316 µM
[26] = second compound 0.316 µM, first compound 0.1 µM
[27] = second compound 0.316 µM, first compound 0.316 µM
[28] = second compound 0.316 µM, first compound 1 µM
[29] = second compound 0.316 µM, first compound 3.16 µM
[30] = second compound 0.316 µM, first compound 10 µM
[31] = second compound 1 µM, first compound 0.0316 µM
[32] = second compound 1 µM, first compound 0.1 µM
[33] = second compound 1 µM, first compound 0.316 µM
[34] = second compound 1 µM, first compound 1 µM
[35] = second compound 1 µM, first compound 3.16 µM
[36] = second compound 1 µM, first compound 10 µM
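Also: compound exposure lasted seven days before viability was read.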
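For viability, T/C in this document: percent of vehicle DMSO treated spheroid viability so 100% = untreated.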

CC(Cn1ccc(-c2ccc(C#N)c(Cl)c2)n1)NC(=O)c1cc(C(C)O)[nH]n1 (stereo unspecified) + CC(Nc1ccc2c(c1)OCCn1cc(N3C(=O)OCC3C(F)F)nc1-2)C(N)=O
8.81 µM: IC50 (second compound 0.1 µM)
4.18 µM: IC50 (second compound 1 µM)
7.05 µM: IC50 (second compound 0.316 µM)
> 10 µM: IC50 (second compound 0.00316 µM) | IC50 (second compound 0.01 µM) | IC50 (second compound 0.0316 µM)
inactive: viability, T/C [1] 66.3% | viability, T/C [2] 106% | viability, T/C [3] 91.7% | viability, T/C [4] 82.5% | viability, T/C [5] 105% | viability, T/C [6] 53.2% | viability, T/C [7] 89% | viability, T/C [8] 72.4% | viability, T/C [9] 97.3% | viability, T/C [10] 119% | viability, T/C [11] 96.7% | viability, T/C [12] 56.6% | viability, T/C [13] 78.5% | viability, T/C [14] 89.6% | viability, T/C [15] 96.6% | viability, T/C [16] 94.1% | viability, T/C [17] 90.5% | viability, T/C [18] 59.9% | viability, T/C [19] 61.6% | viability, T/C [20] 60.9% | viability, T/C [21] 83.8% | viability, T/C [22] 105% | viability, T/C [23] 84.9% | viability, T/C [24] 46.4% | viability, T/C [25] 96.7% | viability, T/C [26] 81.7% | viability, T/C [27] 68.2% | viability, T/C [28] 82.4% | viability, T/C [29] 75.3% | viability, T/C [30] 39.2% | viability, T/C [31] 64.9% | viability, T/C [32] 43% | viability, T/C [33] 83.7% | viability, T/C [34] 75.5% | viability, T/C [35] 49.6% | viability, T/C [36] 29%

C#Cc1c(F)ccc2cc(O)cc(-c3ncc4c(N5CC6CCC(C5)N6)nc(OCC56CCCN5CC(F)C6)nc4c3F)c12 (stereo unspecified) + CC(Nc1ccc2c(c1)OCCn1cc(N3C(=O)OCC3C(F)F)nc1-2)C(N)=O
inactive: viability, T/C [1] 86.7% | viability, T/C [2] 88.4% | viability, T/C [3] 76% | viability, T/C [4] 67.9% | viability, T/C [5] 52.8% | viability, T/C [6] 36.1% | viability, T/C [7] 106% | viability, T/C [8] 74% | viability, T/C [9] 80.1% | viability, T/C [10] 69.1% | viability, T/C [11] 52% | viability, T/C [12] 31.1% | viability, T/C [13] 94.7% | viability, T/C [14] 80.1% | viability, T/C [15] 83.2% | viability, T/C [16] 61.3% | viability, T/C [17] 39.7% | viability, T/C [18] 28.8% | viability, T/C [19] 89.1% | viability, T/C [20] 84.1% | viability, T/C [21] 47.5% | viability, T/C [22] 56.7% | viability, T/C [23] 39.7% | viability, T/C [24] 28.2% | viability, T/C [25] 67.6% | viability, T/C [26] 71% | viability, T/C [27] 60.7% | viability, T/C [28] 34.7% | viability, T/C [29] 31.3% | viability, T/C [30] 22.8% | viability, T/C [31] 49.5% | viability, T/C [32] 51.2% | viability, T/C [33] 47.5% | viability, T/C [34] 35.2% | viability, T/C [35] 25% | viability, T/C [36] 17.2%
0.102 µM: IC50 (second compound 1 µM)
1.87 µM: IC50 (second compound 0.0316 µM)
3.11 µM: IC50 (second compound 0.01 µM)
0.513 µM: IC50 (second compound 0.316 µM)
0.922 µM: IC50 (second compound 0.1 µM)
3.79 µM: IC50 (second compound 0.00316 µM)

C[C@@H](NC(=O)c1ncnc(N)c1Cl)c1ncc(C(=O)Nc2cc(C(F)(F)F)c(Cl)cn2)s1 + CC(Nc1ncnc2nc[nH]c12)c1cc2cccc(Cl)c2c(=O)n1-c1ccccc1
> 10 µM: IC50 (second compound 0.0316 µM) | IC50 (second compound 0.1 µM) | IC50 (second compound 0.316 µM) | IC50 (second compound 1 µM) | IC50 (second compound 3.16 µM) | IC50 (second compound 10 µM)
inactive: viability, T/C [13] 104% | viability, T/C [14] 103% | viability, T/C [15] 90.1% | viability, T/C [16] 120% | viability, T/C [17] 109% | viability, T/C [18] 75.6% | viability, T/C [19] 109% | viability, T/C [20] 138% | viability, T/C [21] 123% | viability, T/C [22] 99.8% | viability, T/C [23] 98.2% | viability, T/C [24] 111% | viability, T/C [25] 123% | viability, T/C [26] 84.5% | viability, T/C [27] 118% | viability, T/C [28] 127% | viability, T/C [29] 98.3% | viability, T/C [30] 107% | viability, T/C [31] 97.8% | viability, T/C [32] 86.6% | viability, T/C [33] 126% | viability, T/C [34] 95.1% | viability, T/C [35] 117% | viability, T/C [36] 69.8% | viability, T/C (second compound 3.16 µM, first compound 0.0316 µM) 91.8% | viability, T/C (second compound 3.16 µM, first compound 0.1 µM) 116% | viability, T/C (second compound 3.16 µM, first compound 0.316 µM) 109% | viability, T/C (second compound 3.16 µM, first compound 1 µM) 104% | viability, T/C (second compound 3.16 µM, first compound 3.16 µM) 90% | viability, T/C (second compound 3.16 µM, first compound 10 µM) 70% | viability, T/C (second compound 10 µM, first compound 0.0316 µM) 81.4% | viability, T/C (second compound 10 µM, first compound 0.1 µM) 88.5% | viability, T/C (second compound 10 µM, first compound 0.316 µM) 98.7% | viability, T/C (second compound 10 µM, first compound 1 µM) 92.9% | viability, T/C (second compound 10 µM, first compound 3.16 µM) 87.8% | viability, T/C (second compound 10 µM, first compound 10 µM) 60.8%
